# Results: patent publication EP0522203A1, “Protein from lactic acid bacteria” (PROBICOM RESEARCH B.V., priority 1991, dated 1993)
# *1 amine or outer side, *2 acyl side, *3 side chain or, on linkers, in order; H or OH if unused. Where a SMILES comes first, the peptide text is derived from it. The star is where a group is joined. pNA = O=[N+]([O-])c1ccc(N*)cc1; Suc = O=C(CCC(=O)[*:2])[*:1]; Cbz = O=C(OCc1ccccc1)*; Bz = O=C(c1ccccc1)*
# Test system: endopeptidase
# Assay: Effect of potential inhibitors (chemical agents) on the endopeptidase activity (metenkaphalin hydrolysis, TLC)
# Format: biochemical, L. lactis subsp. cremoris Wg2
# Design: key to Inhibition: +: Inhibition; -: No inhibition detectable
# Settings: not given
Compound,Inhibition,restoration of the enzyme activity inhibited by β-mercaptoethanol,endopeptidase activity inhibited
CC1=CC(=O)c2c(O)cccc2C1=O [Plumbagin],-,could not restore the enzyme activity,
"O=S(=O)(F)Cc1ccccc1 [PMSF, phenylmethylsulfonylfluoride]",+,,inhibited
"O=S(=O)(O)c1cc[c]([Hg][Cl])cc1 [pCMBS, p-chloromercuribenzenesulfonate]",-,,did not have an effect on the activity
"O=C(O)c1cc[c]([Hg][Cl])cc1 [pCMB, p-chloromercuribenzoate]",-,,did not have an effect on the activity
CCN1C(=O)C=CC1=O [N-Ethylmaleimide],-,,
Hydroxylamine,-,,
O=S(=O)(O)c1ccc2c(N=Nc3ccccc3[As](=O)(O)O)c(O)c(S(=O)(=O)O)cc2c1 [Thorin],-,,
"COC(CNC(=O)c1ccccc1OCC(=O)O)[CH2][Hg][OH] (stereo not drawn) [Mersalyl, O-(3-hydroxymercuri-2-methoxypropyl)-carbamylphenoxyacetate]",-,,did not have an effect on the activity

# Same assay, conditions: 1 mM chemical agent, purified enzyme 4 µg protein preincubated 10 min at 20°C; metenkaphalin 15 min at 30°C; TLC
row,Compound,Inhibition
1,N[C@@H](CSSC[C@H](N)C(=O)O)C(=O)O [Cystine],-
2,CCOC(=O)OC(=O)OCC [DEPC],-
3,"O[C@H](CS)[C@H](O)CS (racemic) [DTT, dithiothreitol]",-
4,OCCS [β-Mercaptoethanol],+
5,"c1cnc2c(c1)ccc1cccnc12 [1,10-phenanthroline]",+

# Same assay, conditions: chemical agent 1.0 mM
row,Compound,endopeptidase activity inhibited
1,"O[C@H](CS)[C@H](O)CS (racemic) [DTT, dithiothreitol]",not
2,"c1cnc2c(c1)ccc1cccnc12 [1,10-phenanthroline]",inhibited

# Same assay, conditions: oxidizing reagents up to 5 mM
row,Compound,restoration of the enzyme activity inhibited by β-mercaptoethanol
1,oxidized gluta thione,could not restore the enzyme activity

# Same assay, conditions: β-mercaptoethanol
row,Compound,reversibility of the inhibition of the enzyme
1,OCCS [β-Mercaptoethanol],irreversible

# Same assay, conditions: β-mercaptoethanol 1%
row,Compound,endopeptidase activity inhibited
1,OCCS [β-Mercaptoethanol],inhibited

# Test system: LEP I
# Assay: not given
# Settings: cited from earlier work
row,Compound,hydrolysis by LEP I
1,Glucagon,cannot hydrolyse
2,oxydized insulin β-chain,cannot hydrolyse

# Test system: endopeptidase from L. lactis subsp. cremoris Wg2
# Assay: Substrate specificity: hydrolysis of peptides by the purified endopeptidase, analysed by thin layer chromatography
# Format: biochemical
# Design: key to Activity: +: hydrolysis; -: no hydrolysis detectable
# Settings: not given
Compound,Activity,hydrolysis by the purified endopeptidase
NCC(=O)N1CCC[C@H]1C(=O)Nc1ccc([N+](=O)[O-])cc1 [Gly-Pro-pNA] (H-Gly-Pro-pNA),-,
CSCC[C@H](NC(=O)[C@@H](N)Cc1ccccc1)C(=O)O [Phe-Met] (H-Phe-Met-OH),-,
Neurotensin,+,
Glucagon,+,
CC(C)C[C@H](NC(=O)OCc1ccccc1)C(=O)NCC(=O)NCC(=O)Nc1ccc([N+](=O)[O-])cc1 [Z-Leu-Gly-Gly-pNA] (Cbz-Leu-Gly-Gly-pNA),-,
NCCCC[C@H](NC(=O)CNC(=O)c1ccccc1)C(=O)O [Bz-Gly-Lys] (Bz-Gly-Lys-OH),-,
"N[C@@H](Cc1ccc(O)cc1)C(=O)NCC(=O)NCC(=O)O [Tyr-Gly-Gly, Tyrosyl-glycyl-glycine] (H-Tyr-Gly-Gly-OH)",-,
CC(C)C[C@H](NC(=O)[C@@H](N)CC(C)C)C(=O)O [Leu-Leu],-,
"CSCC[C@H](NC(=O)[C@H](Cc1ccccc1)NC(=O)CNC(=O)CNC(=O)[C@@H](N)Cc1ccc(O)cc1)C(=O)O [Metenkaphalin, Tyrosyl-glycyl-glycyl-phenylalanyl-methionine]",+,
β-Casomorphin,-,
C[C@H](NC(=O)[C@@H]1CCCN1C(=O)CN)C(=O)N1CCC[C@H]1C(=O)O [Gly-Pro-Ala-Pro] (H-GPAP-OH),-,
C[C@H](N)C(=O)N1CCC[C@H]1C(=O)Nc1ccc([N+](=O)[O-])cc1 [Ala-Pro-pNA] (H-Ala-Pro-pNA),-,
C[C@H](N)C(=O)N[C@@H](C)C(=O)N[C@@H](C)C(=O)N[C@@H](C)C(=O)N[C@@H](C)C(=O)N[C@@H](C)C(=O)O [Ala6],-,
O=C(NCC(=O)N1CCC[C@H]1C(=O)O)c1ccccc1 [Bz-Gly-Pro] (Bz-Gly-Pro-OH),-,
oxydized insulin β-chain,+,hydrolyzed
NCC(=O)NCC(=O)O [Gly-Gly] (H-Gly-Gly-OH),-,
CC(C)C[C@H](NC(=O)[C@@H]1CCCN1C(=O)[C@H](C)NC(=O)[C@H](C)NC(=O)CCC(=O)O)C(=O)Nc1ccc([N+](=O)[O-])cc1 [Nsucc-Ala-Ala-Pro-Leu-pNA] (Suc-AAPL-pNA),-,
C[C@H](N)C(=O)N[C@@H](C)C(=O)N[C@@H](C)C(=O)N[C@@H](C)C(=O)N[C@@H](C)C(=O)O [Ala5],-,
CC(C)[C@H](NC(=O)[C@@H](N)Cc1ccccc1)C(=O)O [Phe-Val] (H-Phe-Val-OH),-,
CSCC[C@H](N)C(=O)NCC(=O)NCC(=O)O [Met-Gly-Gly] (H-Met-Gly-Gly-OH),-,
CC(C)[C@H](NC(=O)CN)C(=O)N[C@@H](Cc1ccccc1)C(=O)O [Gly-Val-Phe] (H-Gly-Val-Phe-OH),-,
CC(C)C[C@H](NC(=O)[C@H](CC(C)C)NC(=O)[C@@H](N)CC(C)C)C(=O)O [Leu-Leu-Leu] (H-Leu-Leu-Leu-OH),-,
C[C@H](NC(=O)CCC(=O)O)C(=O)N[C@@H](C)C(=O)N[C@@H](C)C(=O)Nc1ccc([N+](=O)[O-])cc1 [Nsucc-Ala-Ala-Ala-pNA],-,
C[C@H](NC(=O)[C@@H]1CCCN1C(=O)OCc1ccccc1)C(=O)O [Z-Pro-Ala] (Cbz-Pro-Ala-OH),-,
C[C@H](NC(=O)[C@H](Cc1ccccc1)NC(=O)OCc1ccccc1)C(=O)O [Z-Phe-Ala],-,

# Same assay, conditions: chromogenic substrates: TLC, hydrolysis also measured at A410
row,Compound,Activity
1,O=C(O)CCC(=O)N[C@@H](Cc1ccccc1)C(=O)Nc1ccc([N+](=O)[O-])cc1 [Nsucc-Phe-pNA],-
2,NCCCC[C@H](N)C(=O)Nc1ccc([N+](=O)[O-])cc1 [Lys-pNA],-

# Same assay, conditions: hydrolysis of the substrate by purified endopeptidase, analysed by TLC
row,Compound,Activity
1,"β-Casein( 33- 48) (FQSEEQQQTEDELQDK; UniProt P02666 48-63, looked up, fragment)",-
2,"β-Casein(203-209) (GPFPIIV; UniProt P02666 218-224, looked up, fragment)",+
3,"Bradykinin (RPPGFSPFR; Bradykinin; UniProt P01042 381-389, looked up)",+
4,CC(C)C[C@H](N)C(=O)NCC(=O)NCC(=O)O [Leu-Gly-Gly] (H-Leu-Gly-Gly-OH),-
5,NCC(=O)N1CCC[C@H]1C(=O)NCC(=O)NCC(=O)O [Gly-Pro-Gly-Gly] (H-GPGG-OH),-
6,"β-Casein(184-202) (DMPIQAFLLYQEPVLGPVR; UniProt P02666 199-217, looked up, fragment)",+
7,CSCC[C@H](NC(=O)[C@H](CC(C)C)NC(=O)CNC(=O)[C@H](Cc1ccccc1)NC(=O)[C@H](Cc1ccccc1)NC(=O)[C@H](CCC(N)=O)NC(=O)[C@H](CCC(N)=O)NC(=O)[C@@H]1CCCN1C(=O)[C@H](CCCCN)NC(=O)[C@@H]1CCCN1C(=O)[C@@H](N)CCCNC(=N)N)C(N)=O [Substance P],+
